Tests used:
Test in all cases: KINOMEscan competition binding
Settings in all cases: compound 10.0 µM
AAK1 (human) = AAK1 (human) (UniProt Q2M2I8)
ACVR1 (human) = ACVR1 (human) (UniProt Q04771)
ACVR2A (human) = ACVR2A (human) (UniProt P27037)
CAMK2D (human) = CAMK2D (human) (UniProt Q13557)
CAMK2G (human) = CAMK2G (human) (UniProt Q13555)
CDK19 (human) = CDK19 (human) (UniProt Q9BWU1)
CSF1R (human) = CSF1R (human) (UniProt P07333)
DDR2 (human) = DDR2 (human) (UniProt Q16832)
EPHA2 (human) = EPHA2 (human) (UniProt P29317)
EPHA3 (human) = EPHA3 (human) (UniProt P29320)
Chain of EPHA3 (human) (P29320 whole entry, looked up): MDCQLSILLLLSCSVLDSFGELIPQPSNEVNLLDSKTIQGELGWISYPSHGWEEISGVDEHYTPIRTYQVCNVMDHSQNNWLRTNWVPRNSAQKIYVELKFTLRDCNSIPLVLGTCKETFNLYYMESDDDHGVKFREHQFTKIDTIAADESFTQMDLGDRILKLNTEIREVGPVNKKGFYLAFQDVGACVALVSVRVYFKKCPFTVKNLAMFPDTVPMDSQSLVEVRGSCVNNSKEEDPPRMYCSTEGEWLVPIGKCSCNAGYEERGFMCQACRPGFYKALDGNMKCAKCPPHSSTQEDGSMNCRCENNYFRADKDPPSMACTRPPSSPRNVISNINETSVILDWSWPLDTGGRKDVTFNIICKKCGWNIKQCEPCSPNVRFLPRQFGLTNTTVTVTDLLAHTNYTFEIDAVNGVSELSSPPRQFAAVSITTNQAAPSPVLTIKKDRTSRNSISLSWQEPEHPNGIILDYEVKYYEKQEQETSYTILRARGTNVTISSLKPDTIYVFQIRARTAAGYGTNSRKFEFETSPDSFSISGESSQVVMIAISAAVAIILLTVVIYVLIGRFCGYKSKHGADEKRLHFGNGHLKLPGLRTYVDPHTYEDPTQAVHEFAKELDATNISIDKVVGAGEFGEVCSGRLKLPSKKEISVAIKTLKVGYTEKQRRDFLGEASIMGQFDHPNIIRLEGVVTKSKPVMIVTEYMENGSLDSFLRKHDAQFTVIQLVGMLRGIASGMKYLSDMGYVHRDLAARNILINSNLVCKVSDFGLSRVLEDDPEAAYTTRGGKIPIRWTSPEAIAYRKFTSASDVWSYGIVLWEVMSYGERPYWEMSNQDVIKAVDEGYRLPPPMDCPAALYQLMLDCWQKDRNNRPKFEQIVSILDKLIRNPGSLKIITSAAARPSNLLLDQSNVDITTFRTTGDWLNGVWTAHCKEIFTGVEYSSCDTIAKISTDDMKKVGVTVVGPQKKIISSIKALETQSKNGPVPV

EPHA6 (human) = EPHA6 (human) (UniProt Q9UF33)
EPHA7 (human) = EPHA7 (human) (UniProt Q15375)
EPHB2 (human) = EPHB2 (human) (UniProt P29323)
EPHB4 (human) = EPHB4 (human) (UniProt P54760)
HCK (human) = HCK (human) (UniProt P08631)
IKBKE (human) = IKBKE (human) (UniProt Q14164)
Chain of IKBKE (human) (Q14164 whole entry, looked up): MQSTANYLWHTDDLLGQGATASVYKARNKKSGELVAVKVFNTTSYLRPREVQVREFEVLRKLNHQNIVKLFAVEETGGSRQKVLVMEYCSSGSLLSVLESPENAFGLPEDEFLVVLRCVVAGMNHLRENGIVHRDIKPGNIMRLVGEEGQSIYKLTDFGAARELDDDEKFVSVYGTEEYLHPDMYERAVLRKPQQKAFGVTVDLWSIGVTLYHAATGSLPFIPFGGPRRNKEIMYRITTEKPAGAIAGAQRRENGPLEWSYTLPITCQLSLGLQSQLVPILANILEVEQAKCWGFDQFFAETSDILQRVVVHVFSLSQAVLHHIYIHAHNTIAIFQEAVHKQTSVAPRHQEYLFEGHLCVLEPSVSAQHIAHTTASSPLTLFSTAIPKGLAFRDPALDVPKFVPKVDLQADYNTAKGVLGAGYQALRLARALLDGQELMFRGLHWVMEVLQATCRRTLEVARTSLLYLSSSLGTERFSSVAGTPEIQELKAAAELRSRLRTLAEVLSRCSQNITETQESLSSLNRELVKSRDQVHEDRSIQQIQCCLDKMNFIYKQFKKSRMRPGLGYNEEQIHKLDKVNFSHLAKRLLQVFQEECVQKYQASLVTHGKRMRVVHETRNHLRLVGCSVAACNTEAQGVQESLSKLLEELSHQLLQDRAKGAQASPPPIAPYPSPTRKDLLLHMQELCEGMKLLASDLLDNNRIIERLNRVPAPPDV

IRAK3 (human) = IRAK3 (human) (UniProt Q9Y616)
MAP3K4 (human) = MAP3K4 (human) (UniProt Q9Y6R4)
MAP3K5 (human) = MAP3K5 (human) (UniProt Q99683)
MAP3K7 (human) = MAP3K7 (human) (UniProt O43318)
MAPK12 (human) = MAPK12 (human) (UniProt P53778)
Chain of MAPK12 (human) (P53778 whole entry, looked up): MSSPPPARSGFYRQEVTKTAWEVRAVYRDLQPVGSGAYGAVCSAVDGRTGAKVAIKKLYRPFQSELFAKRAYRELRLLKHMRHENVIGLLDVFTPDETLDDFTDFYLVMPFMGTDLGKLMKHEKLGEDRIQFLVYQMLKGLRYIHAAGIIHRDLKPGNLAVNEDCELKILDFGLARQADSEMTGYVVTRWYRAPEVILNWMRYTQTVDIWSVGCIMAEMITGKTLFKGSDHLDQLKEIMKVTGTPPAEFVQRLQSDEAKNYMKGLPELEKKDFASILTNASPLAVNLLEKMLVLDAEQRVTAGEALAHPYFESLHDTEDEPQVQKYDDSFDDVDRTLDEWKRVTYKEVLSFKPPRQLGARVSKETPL

MAPK13 (human) = MAPK13 (human) (UniProt O15264)
MAPK15 (human) = MAPK15 (human) (UniProt Q8TD08)
MAPK6 (human) = MAPK6 (human) (UniProt Q16659)
PAK1 (human) = PAK1 (human) (UniProt Q13153)
PRKCE (human) = PRKCE (human) (UniProt Q02156)
PTK2 (human) = PTK2 (human) (UniProt Q05397)
PTK2B (human) = PTK2B (human) (UniProt Q14289)
PTK6 (human) = PTK6 (human) (UniProt Q13882)
RIOK1 (human) = RIOK1 (human) (UniProt Q9BRS2)
RIPK1 (human) = RIPK1 (human) (UniProt Q13546)
RPS6KA2 KD2 (human) = RPS6KA2 KD2 (human) (UniProt Q15349)
Chain of RPS6KA2 KD2 (human) (Q15349 whole entry, looked up): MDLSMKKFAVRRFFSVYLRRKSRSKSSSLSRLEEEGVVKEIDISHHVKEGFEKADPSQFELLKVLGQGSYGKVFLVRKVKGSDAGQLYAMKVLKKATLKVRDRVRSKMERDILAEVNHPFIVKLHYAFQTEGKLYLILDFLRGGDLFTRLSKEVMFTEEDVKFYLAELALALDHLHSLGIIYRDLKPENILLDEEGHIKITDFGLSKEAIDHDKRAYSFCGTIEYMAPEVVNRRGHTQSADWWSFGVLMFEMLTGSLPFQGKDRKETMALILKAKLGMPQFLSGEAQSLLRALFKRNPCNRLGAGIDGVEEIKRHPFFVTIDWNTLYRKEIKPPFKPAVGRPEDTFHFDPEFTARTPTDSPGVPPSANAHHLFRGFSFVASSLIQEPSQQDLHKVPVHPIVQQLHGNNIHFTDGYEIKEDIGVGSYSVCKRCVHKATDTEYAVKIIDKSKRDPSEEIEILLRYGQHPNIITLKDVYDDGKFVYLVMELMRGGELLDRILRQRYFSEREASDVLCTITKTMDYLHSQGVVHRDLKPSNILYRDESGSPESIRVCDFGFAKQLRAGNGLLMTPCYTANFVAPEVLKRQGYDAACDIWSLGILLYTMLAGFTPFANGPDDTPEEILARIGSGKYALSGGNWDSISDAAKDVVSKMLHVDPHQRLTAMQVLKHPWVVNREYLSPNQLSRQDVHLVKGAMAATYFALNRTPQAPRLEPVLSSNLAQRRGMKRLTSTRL

RPS6KA4 KD1 (human) = RPS6KA4 KD1 (human) (UniProt O75676)
Chain of RPS6KA4 KD1 (human) (O75676 whole entry, looked up): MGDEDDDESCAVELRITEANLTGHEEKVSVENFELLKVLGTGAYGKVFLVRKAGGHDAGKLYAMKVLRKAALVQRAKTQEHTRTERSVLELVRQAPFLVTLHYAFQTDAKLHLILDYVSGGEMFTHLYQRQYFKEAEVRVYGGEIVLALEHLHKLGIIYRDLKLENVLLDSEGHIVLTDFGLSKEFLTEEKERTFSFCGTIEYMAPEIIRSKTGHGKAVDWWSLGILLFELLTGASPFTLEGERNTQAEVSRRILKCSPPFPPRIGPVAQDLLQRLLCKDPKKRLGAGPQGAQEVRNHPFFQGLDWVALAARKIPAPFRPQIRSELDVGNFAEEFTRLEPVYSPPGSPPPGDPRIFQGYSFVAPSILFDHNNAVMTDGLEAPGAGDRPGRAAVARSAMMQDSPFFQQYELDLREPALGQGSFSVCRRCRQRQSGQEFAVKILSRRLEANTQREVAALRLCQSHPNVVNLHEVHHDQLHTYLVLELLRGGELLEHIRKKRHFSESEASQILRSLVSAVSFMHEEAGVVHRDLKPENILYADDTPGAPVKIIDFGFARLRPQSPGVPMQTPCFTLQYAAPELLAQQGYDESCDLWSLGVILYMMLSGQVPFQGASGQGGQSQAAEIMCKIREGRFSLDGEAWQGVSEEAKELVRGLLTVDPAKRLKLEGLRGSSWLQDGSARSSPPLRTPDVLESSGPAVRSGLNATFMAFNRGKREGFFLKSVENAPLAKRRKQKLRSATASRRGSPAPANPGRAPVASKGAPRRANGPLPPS

RPS6KA4 KD2 (human) = RPS6KA4 KD2 (human) (UniProt O75676)
Chain of RPS6KA4 KD2 (human) (O75676 whole entry, looked up): as above

STK3 (human) = STK3 (human) (UniProt Q13188)
TGFBR2 (human) = TGFBR2 (human) (UniProt P37173)
TLK1 (human) = TLK1 (human) (UniProt Q9UKI8)
TTK (human) = TTK (human) (UniProt P33981)
ULK1 (human) = ULK1 (human) (UniProt O75385)
ZAP70 (human) = ZAP70 (human) (UniProt P43403)
Chain of ZAP70 (human) (P43403 whole entry, looked up): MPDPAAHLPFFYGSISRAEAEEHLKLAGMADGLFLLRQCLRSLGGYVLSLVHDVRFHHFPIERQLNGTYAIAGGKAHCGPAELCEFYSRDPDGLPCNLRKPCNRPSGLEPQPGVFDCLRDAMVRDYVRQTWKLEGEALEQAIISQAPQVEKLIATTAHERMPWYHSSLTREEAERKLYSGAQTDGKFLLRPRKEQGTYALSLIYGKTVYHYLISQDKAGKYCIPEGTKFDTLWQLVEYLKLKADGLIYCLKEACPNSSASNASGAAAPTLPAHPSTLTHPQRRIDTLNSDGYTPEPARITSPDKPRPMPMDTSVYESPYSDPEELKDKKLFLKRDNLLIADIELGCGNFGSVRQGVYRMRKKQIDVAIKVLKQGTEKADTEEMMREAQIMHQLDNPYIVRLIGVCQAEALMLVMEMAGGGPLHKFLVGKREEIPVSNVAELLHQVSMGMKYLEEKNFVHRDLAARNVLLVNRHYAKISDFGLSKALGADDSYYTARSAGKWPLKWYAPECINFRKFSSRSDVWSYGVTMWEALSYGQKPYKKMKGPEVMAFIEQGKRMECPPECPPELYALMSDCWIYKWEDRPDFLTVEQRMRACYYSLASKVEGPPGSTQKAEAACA

Chain of CAMK2G (human) (Q13555 whole entry, looked up): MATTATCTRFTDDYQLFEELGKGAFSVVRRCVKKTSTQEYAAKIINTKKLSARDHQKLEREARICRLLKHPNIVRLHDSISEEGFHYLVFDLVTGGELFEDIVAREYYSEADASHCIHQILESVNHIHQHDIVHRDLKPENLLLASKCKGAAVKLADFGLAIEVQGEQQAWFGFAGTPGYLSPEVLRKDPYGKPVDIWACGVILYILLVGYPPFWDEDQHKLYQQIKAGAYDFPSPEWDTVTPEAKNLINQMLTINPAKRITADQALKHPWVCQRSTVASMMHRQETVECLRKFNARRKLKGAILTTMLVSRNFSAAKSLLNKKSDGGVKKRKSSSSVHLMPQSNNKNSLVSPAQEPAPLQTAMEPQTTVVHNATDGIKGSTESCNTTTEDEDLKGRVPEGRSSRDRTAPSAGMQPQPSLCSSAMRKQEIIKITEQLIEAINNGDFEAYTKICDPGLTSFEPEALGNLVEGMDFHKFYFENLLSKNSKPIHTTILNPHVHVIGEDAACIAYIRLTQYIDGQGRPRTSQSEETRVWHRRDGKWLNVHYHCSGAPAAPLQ

SMILES	kinase still bound, per cent of control (AAK1 (human)) [%]	kinase still bound, per cent of control (ACVR1 (human)) [%]	kinase still bound, per cent of control (ACVR2A (human)) [%]	kinase still bound, per cent of control (CAMK2D (human)) [%]	kinase still bound, per cent of control (CAMK2G (human)) [%]	kinase still bound, per cent of control (CDK19 (human)) [%]	kinase still bound, per cent of control (DDR2 (human)) [%]	kinase still bound, per cent of control (EPHA2 (human)) [%]	kinase still bound, per cent of control (EPHA3 (human)) [%]	kinase still bound, per cent of control (EPHA6 (human)) [%]	kinase still bound, per cent of control (EPHA7 (human)) [%]	kinase still bound, per cent of control (EPHB2 (human)) [%]	kinase still bound, per cent of control (EPHB4 (human)) [%]	kinase still bound, per cent of control (HCK (human)) [%]	kinase still bound, per cent of control (IKBKE (human)) [%]	kinase still bound, per cent of control (MAP3K4 (human)) [%]	kinase still bound, per cent of control (MAP3K5 (human)) [%]	kinase still bound, per cent of control (MAP3K7 (human)) [%]	kinase still bound, per cent of control (MAPK12 (human)) [%]	kinase still bound, per cent of control (MAPK13 (human)) [%]	also measured
Cn1c(=O)n(-c2ccc(C(C)(C)C#N)cc2)c2c3cc(-c4cnc5ccccc5c4)ccc3ncc21	100	100	100	100	100	100	100	100	100	100	100	100	100	100	100	100	100	100	100	100	kinase still bound, per cent of control (CSF1R (human)): 100%; kinase still bound, per cent of control (IRAK3 (human)): 100%; kinase still bound, per cent of control (MAPK15 (human)): 100%; kinase still bound, per cent of control (MAPK6 (human)): 100%; kinase still bound, per cent of control (PAK1 (human)): 100%; kinase still bound, per cent of control (PRKCE (human)): 100%; kinase still bound, per cent of control (PTK2 (human)): 100%; kinase still bound, per cent of control (PTK2B (human)): 100%; kinase still bound, per cent of control (PTK6 (human)): 100%; kinase still bound, per cent of control (RIOK1 (human)): 100%; kinase still bound, per cent of control (RIPK1 (human)): 100%; kinase still bound, per cent of control (RPS6KA2 KD2 (human)): 100%; kinase still bound, per cent of control (RPS6KA4 KD1 (human)): 100%; kinase still bound, per cent of control (RPS6KA4 KD2 (human)): 100%; kinase still bound, per cent of control (STK3 (human)): 100%; kinase still bound, per cent of control (TGFBR2 (human)): 100%; kinase still bound, per cent of control (TLK1 (human)): 100%; kinase still bound, per cent of control (TTK (human)): 100%; kinase still bound, per cent of control (ULK1 (human)): 100%; kinase still bound, per cent of control (ZAP70 (human)): 100%
Nc1ccc(-c2ccc3ncc4ccc(=O)n(-c5cccc(C(F)(F)F)c5)c4c3c2)cn1	71	86	95	85	95	100	99	99	86	100	100	98	100	100	89	100	100	48	87	48	kinase still bound, per cent of control (IRAK3 (human)): 42%; kinase still bound, per cent of control (MAPK15 (human)): 18%; kinase still bound, per cent of control (MAPK6 (human)): 62%; kinase still bound, per cent of control (PAK1 (human)): 95%; kinase still bound, per cent of control (PRKCE (human)): 69%; kinase still bound, per cent of control (PTK2 (human)): 75%; kinase still bound, per cent of control (PTK2B (human)): 86%; kinase still bound, per cent of control (PTK6 (human)): 100%; kinase still bound, per cent of control (RIOK1 (human)): 65%; kinase still bound, per cent of control (RIPK1 (human)): 100%; kinase still bound, per cent of control (RPS6KA2 KD2 (human)): 86%; kinase still bound, per cent of control (RPS6KA4 KD1 (human)): 82%; kinase still bound, per cent of control (RPS6KA4 KD2 (human)): 100%; kinase still bound, per cent of control (STK3 (human)): 63%; kinase still bound, per cent of control (TGFBR2 (human)): 84%; kinase still bound, per cent of control (TLK1 (human)): 90%; kinase still bound, per cent of control (TTK (human)): 42%; kinase still bound, per cent of control (ULK1 (human)): 96%; kinase still bound, per cent of control (ZAP70 (human)): 100%
CCCS(=O)(=O)Nc1ccc(F)c(C(=O)c2c[nH]c3ncc(-c4ccc(Cl)cc4)cc23)c1F	100	100	100	100	95	0.8	35	99	44	100	100	99	100	13	100	63	100	69	93	100	kinase still bound, per cent of control (CSF1R (human)): 8%; kinase still bound, per cent of control (MAPK15 (human)): 89%; kinase still bound, per cent of control (MAPK6 (human)): 100%; kinase still bound, per cent of control (PAK1 (human)): 95%; kinase still bound, per cent of control (PRKCE (human)): 87%; kinase still bound, per cent of control (PTK2 (human)): 63%; kinase still bound, per cent of control (PTK2B (human)): 100%; kinase still bound, per cent of control (PTK6 (human)): 0.75%; kinase still bound, per cent of control (RIOK1 (human)): 100%; kinase still bound, per cent of control (RIPK1 (human)): 63%; kinase still bound, per cent of control (RPS6KA2 KD2 (human)): 81%; kinase still bound, per cent of control (RPS6KA4 KD1 (human)): 90%; kinase still bound, per cent of control (RPS6KA4 KD2 (human)): 96%; kinase still bound, per cent of control (STK3 (human)): 1.9%; kinase still bound, per cent of control (TGFBR2 (human)): 2.5%; kinase still bound, per cent of control (TLK1 (human)): 95%; kinase still bound, per cent of control (TTK (human)): 57%; kinase still bound, per cent of control (ULK1 (human)): 93%; kinase still bound, per cent of control (ZAP70 (human)): 90%

— the kinase profiling compilation of Christmann-Franck et al. (2016)
